Results: paper PMC10377574, “Preclinical Characterization of a Stabilized Gastrin-Releasing Peptide Receptor Antagonist for Targeted Cancer Theranostics” (Biomolecules, 2023)
Values belong to the molecule of their own block, whether it stands above or below them.

How the values were obtained:
[1] = tested on: PC-3 tumors (GRPR-positive); test: Biodistribution in mice bearing PC-3 tumors; details: 1 h pi, n = 4
Procedure: (§1) Biodistribution was conducted in Balb/c nu/nu mice (Scanbur A/S, Stockholm, Sweden), implanted subcutaneously in their flanks with PC-3 cells (6 × 10^6 cells/mouse) 3–4 weeks before the study. […] Biodistributions were conducted at 1 h pi for both control groups.

[2] = Biodistribution in mice bearing PC-3 tumors; details: Balb/c nu/nu, mouse, iv, total radioactivity, n = 4; for tissue uptake at 1 h: 1 h pi; for tissue uptake at 4 h: 4 h pi; for tissue uptake at 24 h: 24 h pi
Procedure: as §1

[3] = Radiometal complex stability (PBS, EDTA challenge, human serum), ITLC; details: 1 h at 37 °C, n = 3
Procedure: The radiochemical stability to transchelation was assessed by incubation of the radiolabeled peptide either with 1000× molar excess of EDTA or by incubation in human serum for 1 h at 37 °C. Incubation of radiolabeled peptide in PBS was used as control. The leakage of radiometal from the radiometal-chelate was determined with ITLC.

[4] = Biodistribution in negative control mice bearing DU-145 tumors; type: in vivo; details: Balb/c nu/nu, mouse, iv, 40 pmol, total radioactivity, 1 h pi, n = 4
Procedure: as §1

[5] = In vivo metabolic stability in peripheral mice blood, HPLC; details: 5 min pi
Procedure: (§2) Pills were ground to a fine powder in a mortar, divided, and suspended in tab water to individual 12 mg/200 mL doses of pill per animal administered per os (Entresto® group) [35].
(§3) The in vivo stability was determined in healthy male Swiss albino mice (12 mice in total, body weights 30 ± 5 g). Briefly, each radiolabeled peptide was injected as a bolus (100 μL, 11–22 MBq, 3 nmol of total peptide in saline/EtOH 9/1 v/v) in the tail vein of mice either untreated (controls) or 20 min after having received per os a slurry of an Entresto® pill (individual 12 mg/200 mL doses of pill per animal; Entresto®-group; Novartis, Basel, Switzerland), as previously described [34, 35]. Blood was collected 5 min post-injection (pi) in a chilled syringe directly from the heart (0.5–1 mL) and samples were processed prior to being analyzed by HPLC for the detection of forming radiometabolites, as previously described [25, 35]. For analyses, an XBridge Shield RP18 (5 μm, 4.6 mm × 20 mm) column (Waters, Vienna, Austria) was eluted at a flow rate of 1 mL/min with 0.1% TFA in H2O (A) and MeCN (B) with the following linear gradient system: 100%A/0%B at 0 min, with B linearly increasing by 1%/min to 60%A/40%B (system 2).

[6] = mouse, in vivo
Procedure: as §2, §3

in vivo = details: Balb/c nu/nu, mouse, iv, 40 pmol, total radioactivity
Procedure: as §1

[7] = PC-3 tumor, 40 pmol, Tumor (PC-3) uptake
[8] = kidneys, 40 pmol, Kidneys uptake
[9] = pancreas, 40 pmol, Pancreas uptake
[10] = small intestine, 40 pmol, Small intestine uptake

Pancreas uptake [1]: 2.23 ± 0.56 %IA/g
tissue uptake at 1 h [2, 7]: 7 ± 0.7 %ID/g
tissue uptake at 4 h [2, 7]: 5.7 ± 1.8 %ID/g
tissue uptake at 24 h [2, 7]: 1.8 ± 0.6 %ID/g
tissue uptake at 1 h ([2]; PC-3 tumor, with unlabeled NOTA-PEG2-RM26, 5 nmol (in vivo GRPR blocking), PC-3 tumor uptake, GRPR-blocking group, excess unlabeled NOTA-PEG2-RM26 (5 nmol)): 0.9 ± 0.6 %ID/g
tissue uptake at 1 h ([2]; blood, 40 pmol, Blood uptake): 0.6 ± 0.1 %ID/g
tissue uptake at 4 h ([2]; blood, 40 pmol, Blood uptake): 0.11 ± 0.07 %ID/g
tissue uptake at 24 h ([2]; blood, 40 pmol, Blood uptake): 0.02 ± 0.01 %ID/g
tissue uptake at 1 h ([2]; bone, 40 pmol, Bone uptake): 0.17 ± 0.09 %ID/g
tissue uptake at 4 h ([2]; bone, 40 pmol, Bone uptake): 0.09 ± 0.03 %ID/g
tissue uptake at 24 h ([2]; bone, 40 pmol, Bone uptake): 0.06 ± 0.03 %ID/g
tissue uptake at 1 h [2, 8]: 7.2 ± 0.9 %ID/g
tissue uptake at 4 h [2, 8]: 6 ± 1 %ID/g
tissue uptake at 24 h [2, 8]: 3 ± 0.9 %ID/g
tissue uptake at 1 h ([2]; liver, 40 pmol, Liver uptake): 0.55 ± 0.04 %ID/g
tissue uptake at 4 h ([2]; liver, 40 pmol, Liver uptake): 0.24 ± 0.02 %ID/g
tissue uptake at 24 h ([2]; liver, 40 pmol, Liver uptake): 0.1 ± 0.03 %ID/g
tissue uptake at 1 h ([2]; lungs, 40 pmol, Lungs uptake): 0.46 ± 0.09 %ID/g
tissue uptake at 4 h ([2]; lungs, 40 pmol, Lungs uptake): 0.17 ± 0.06 %ID/g
tissue uptake at 24 h ([2]; lungs, 40 pmol, Lungs uptake): 0.03 ± 0.03 %ID/g
tissue uptake at 1 h ([2]; muscle, 40 pmol, Muscle uptake): 0.15 ± 0.08 %ID/g
tissue uptake at 4 h ([2]; muscle, 40 pmol, Muscle uptake): 0.13 ± 0.05 %ID/g
tissue uptake at 24 h ([2]; muscle, 40 pmol, Muscle uptake): 0.01 ± 0.01 %ID/g
tissue uptake at 1 h [2, 9]: 2.2 ± 0.6 %ID/g
tissue uptake at 4 h [2, 9]: 0.29 ± 0.02 %ID/g
tissue uptake at 24 h [2, 9]: 0.03 ± 0.01 %ID/g
tissue uptake at 1 h ([2]; pancreas, with unlabeled NOTA-PEG2-RM26, 5 nmol (in vivo GRPR blocking), pancreas uptake, blocked group, excess unlabeled NOTA-PEG2-RM26 (5 nmol)): 0.3 ± 0.2 %ID/g
tissue uptake at 1 h [2, 10]: 1.1 ± 0.6 %ID/g
tissue uptake at 4 h [2, 10]: 0.3 ± 0.2 %ID/g
tissue uptake at 24 h [2, 10]: 0.03 ± 0.01 %ID/g
tissue uptake at 1 h ([2]; spleen, 40 pmol, Spleen uptake): 0.3 ± 0.2 %ID/g
tissue uptake at 4 h ([2]; spleen, 40 pmol, Spleen uptake): 0.22 ± 0.07 %ID/g
tissue uptake at 24 h ([2]; spleen, 40 pmol, Spleen uptake): 0.1 ± 0.03 %ID/g
Radiochemical stability, % protein-associated activity, EDTA ([3]; 1000× molar excess of EDTA): 98.7 ± 0.3%
Radiochemical stability, % protein-associated activity, PBS ([3]; PBS control): 100.0 ± 0.3%
Radiochemical stability, % protein-associated activity, Serum ([3]; human serum): 99.2 ± 0.3%
tissue uptake at 1 h ([4]; DU-145 tumor, read-out: uptake in DU-145 tumors (GRPR-negative)): 0.9 ± 0.2 %ID/g
tissue uptake at 1 h ([4]; pancreas, DU-145 tumor-bearing mice, read-out: pancreas uptake, negative control group): 2.2 ± 0.7 %ID/g
% intact radioligand in peripheral mice blood ([5]; Entresto-treated group (NEP inhibition, per os)): 91 ± 2%
% intact radioligand in peripheral mice blood ([5]; control (untreated) mice): 88 ± 8%
SMILES: CC(C)C[C@H](NC(=O)C[C@H](O)[C@H](CC(C)C)NC(=O)[C@H](Cc1c[nH]cn1)NC(=O)CN(C)C(=O)[C@@H](NC(=O)[C@H](C)NC(=O)[C@H](Cc1c[nH]c2ccccc12)NC(=O)[C@H](CCC(N)=O)NC(=O)[C@@H](Cc1ccccc1)NC(=O)COCCOCCNC(=O)CCC(C(=O)O)N1CCN(CC(=O)O)CCN(CC(=O)O)CCN(CC(=O)O)CC1)C(C)C)C(N)=O (mixture of isomers) [[^111In]In-AU-RM26-M1, [^111In]In-DOTAGA-PEG2-(Sar^11)RM26, metal not drawn]

% degraded in peripheral mice blood [6]: about 30%
tissue uptake at 1 h (in vivo; Blood uptake): 0.5 ± 0.3 %ID/g
tissue uptake at 4 h (in vivo; Blood uptake): 0.07 ± 0.01 %ID/g
tissue uptake at 24 h (in vivo; Blood uptake): 0.015 ± 0.003 %ID/g
tissue uptake at 1 h (in vivo; Bone uptake): 0.13 ± 0.08 %ID/g
tissue uptake at 4 h (in vivo; Bone uptake): 0.07 ± 0.04 %ID/g
tissue uptake at 24 h (in vivo; Bone uptake): 0.04 ± 0.03 %ID/g
tissue uptake at 1 h (in vivo; Kidneys uptake): 4.6 ± 0.9 %ID/g
tissue uptake at 4 h (in vivo; Kidneys uptake): 3.5 ± 0.7 %ID/g
tissue uptake at 24 h (in vivo; Kidneys uptake): 2 ± 0.5 %ID/g
tissue uptake at 1 h (in vivo; Liver uptake): 0.5 ± 0.1 %ID/g
tissue uptake at 4 h (in vivo; Liver uptake): 0.23 ± 0.05 %ID/g
tissue uptake at 24 h (in vivo; Liver uptake): 0.16 ± 0.02 %ID/g
tissue uptake at 1 h (in vivo; Lungs uptake): 0.5 ± 0.2 %ID/g
tissue uptake at 4 h (in vivo; Lungs uptake): 0.11 ± 0.02 %ID/g
tissue uptake at 24 h (in vivo; Lungs uptake): 0.04 ± 0.01 %ID/g
tissue uptake at 1 h (in vivo; Muscle uptake): 0.11 ± 0.08 %ID/g
tissue uptake at 4 h (in vivo; Muscle uptake): 0.04 ± 0.01 %ID/g
tissue uptake at 24 h (in vivo; Muscle uptake): 0.01 ± 0.01 %ID/g
tissue uptake at 1 h (in vivo; Pancreas uptake): 1.9 ± 1 %ID/g
tissue uptake at 4 h (in vivo; Pancreas uptake): 0.18 ± 0.04 %ID/g
tissue uptake at 24 h (in vivo; Pancreas uptake): 0.03 ± 0.01 %ID/g
tissue uptake at 1 h (in vivo; Small intestine uptake): 0.8 ± 0.2 %ID/g
tissue uptake at 4 h (in vivo; Small intestine uptake): 0.13 ± 0.04 %ID/g
tissue uptake at 24 h (in vivo; Small intestine uptake): 0.05 ± 0.05 %ID/g
tissue uptake at 1 h (in vivo; Spleen uptake): 0.21 ± 0.06 %ID/g
tissue uptake at 4 h (in vivo; Spleen uptake): 0.1 ± 0.02 %ID/g
tissue uptake at 24 h (in vivo; Spleen uptake): 0.1 ± 0.03 %ID/g
tissue uptake at 1 h (in vivo; Tumor (PC-3) uptake): 6 ± 0.4 %ID/g
tissue uptake at 4 h (in vivo; Tumor (PC-3) uptake): 3 ± 1 %ID/g
tissue uptake at 24 h (in vivo; Tumor (PC-3) uptake): 1.2 ± 0.4 %ID/g
SMILES: CC(C)C[C@H](NC(=O)C[C@H](O)[C@H](CC(C)C)NC(=O)[C@H](Cc1c[nH]cn1)NC(=O)CNC(=O)[C@@H](NC(=O)[C@H](C)NC(=O)[C@H](Cc1c[nH]c2ccccc12)NC(=O)[C@H](CCC(N)=O)NC(=O)[C@@H](Cc1ccccc1)NC(=O)COCCOCCNC(=O)CCC(C(=O)O)N1CCN(CC(=O)O)CCN(CC(=O)O)CCN(CC(=O)O)CC1)C(C)C)C(N)=O (mixture of isomers) [[^111In]In-DOTAGA-PEG2-RM26, metal not drawn]
